{"source": "patent US20240417410A1", "about": "“TRICYCLIC COMPOUNDS FOR THE TREATMENT OF CANCER” (Hoffmann-La Roche Inc., priority 2023, published 2024)", "key": {"[1]": {"test_system": "NCI-H358 cells (KRAS G12C)", "test": "Cell viability assay (Cell Counting Kit-8, 3-day)", "format": "cell-based, human", "conditions": "Homo sapiens, NCI-H358, 72 h, NCI-H358, 72 hrs incubation", "how_it_was_run": "(§1)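 After overnight attachment, cells received compounds (0.5% DMSO) for 72 hrs; viability was then quantified with CCK-8, reading OD450 minus OD650, and IC50 values were obtained from a 4-parameter concentration-response fit.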"}, "SW620 cells (KRAS G12V)": {"test_system": "SW620 cells (KRAS G12V)", "test": "Cell viability assay (Cell Counting Kit-8, 3-day)", "format": "cell-based, human", "conditions": "Homo sapiens, SW-620; SW620, 72 hrs incubation", "how_it_was_run": "as §1"}, "AGS cells (KRAS G12D)": {"test_system": "AGS cells (KRAS G12D)", "test": "Cell viability assay (Cell Counting Kit-8, 3-day)", "format": "cell-based, human", "conditions": "Homo sapiens, 72 h, 72 hrs incubation", "how_it_was_run": "as §1"}, "WT KRAS-BRAF complex": {"test_system": "WT KRAS-BRAF complex", "test": "WT KRAS-BRAF with CYPA interaction assay (TR-FRET)", "format": "biochemical", "description": "In this example, TR-FRET was used to measure the compound or compound-CYPA dependent disruption of the KRAS G12V-BRAF complex to assess inhibition efficacy. The IC50 ratio between WT KRAS/HRAS/NRAS and KRAS G12V mutant was calculated as selective index, which indicated tolerability and safety profile. Disruption of WT KRAS/HRAS/NRAS-BRAF complex by compounds was detected respectively. In assay buffer containing 25 mM HEPES (PH-7.4,4-(2-hydroxyethyl)-1-piperazineethanesulfonic acid, Thermo, 15630080), 0.002% Tween20, 0.1% BSA, 100 mM NaCl, 5 mM MgCl2, 10 μM GMPPNP (Guanosine 5′-[β,γ-imido]triphosphate trisodium salt hydrate, Sigma, G0635), tagless CYPA and GMPPNP loaded 6His-RAS proteins, and GST-BRAF^RBD were mixed in a well of a 384-well assay plate at final concentrations of 50 nM, 6.25 nM and 1 nM, respectively. Compound was present in plate wells as a 16-point 3-fold dilution series starting at a final concentration of 10 μM and incubated for 3 hours. A mixture of MAb Anti-6His-XL665 (Cisbio, 61HISXLB) and Mab anti-GST-TB cryptate (Cisbio, 61GSTTLB) was then added at a final concentration of 6.67 nM and 0.21 nM, respectively, and the plate was incubated for an additional 1.5 hours. TR-FRET signal was read on a PHERstar FSX microplate reader (Ex320 nm, Em 665/615 nm). Compounds that facilitate disruption of the RAS-BRAF complex were identified as those eliciting a decrease in the TR-FRET ratio relative to DMSO control wells."}, "[2]": {"test_system": "Miapaca-2 KRAS G12C + V8A", "test": "Stable KRAS mutant cell line viability assay (CellTiter-Glo)", "format": "cell-based", "conditions": "Miapaca-2 mutant cells, 3 d", "excerpt": "(§2) The aim of the study was to determine the potency and efficacy of compounds for cell proliferation using CellTiter-Glo® (CTG) Luminescent Cell Viability Assay (Promega Corp., Madison, WI). We cloned 14 KRAS^G12C variant sequences with secondary mutations (V8A, V9Y, S17E, T58I, A59T, S65W, R68S, D69P, M72I, D92R, H95N, Y96D, Q99W and F156L) into the Miapaca-2. Totally 14 stable Miapaca-2 mutant cell lines were established through lentivirus infection. For the cell viability assay, cells were dosed with compounds in a 9-point dose-response using a 4 fold dilution series at a top dose of 10 μM. KRAS mutant cells were maintained in DMEM+10% FBS+2.5% HI Horse serum+1% PS+1 μg/mL Puromycin and seeded into 96-well plates at 800-1,500 cells per well 24 h before compound addition and then incubated with compound for 3 d before assaying viability (CellTiter-Glo, Promega). Assays were performed in biological duplicates. Nonlinear regression curves were fitted using Xfit. IC50 (absolute IC50) is the dose at which the estimated viability is 50% relative to untreated wells."}, "[3]": {"test_system": "Miapaca-2 KRAS G12C + T58I", "test": "Stable KRAS mutant cell line viability assay (CellTiter-Glo)", "format": "cell-based", "conditions": "Miapaca-2 mutant cells, 3 d", "excerpt": "as §2"}, "[4]": {"test_system": "Miapaca-2 KRAS G12C + D92R", "test": "Stable KRAS mutant cell line viability assay (CellTiter-Glo)", "format": "cell-based", "conditions": "Miapaca-2 mutant cells, 3 d", "excerpt": "as §2"}, "[5]": {"test_system": "Miapaca-2 KRAS G12C + S65W", "test": "Stable KRAS mutant cell line viability assay (CellTiter-Glo)", "format": "cell-based", "conditions": "Miapaca-2 mutant cells, 3 d", "excerpt": "as §2"}, "[6]": {"test_system": "Miapaca-2 KRAS G12C + S17E", "test": "Stable KRAS mutant cell line viability assay (CellTiter-Glo)", "format": "cell-based", "conditions": "Miapaca-2 mutant cells, 3 d", "excerpt": "as §2"}, "[7]": {"test_system": "Miapaca-2 KRAS G12C + A59T", "test": "Stable KRAS mutant cell line viability assay (CellTiter-Glo)", "format": "cell-based", "conditions": "Miapaca-2 mutant cells, 3 d", "excerpt": "as §2"}, "[8]": {"test_system": "Miapaca-2 KRAS G12C + H95N", "test": "Stable KRAS mutant cell line viability assay (CellTiter-Glo)", "format": "cell-based", "conditions": "Miapaca-2 mutant cells, 3 d", "excerpt": "as §2"}, "[9]": {"test_system": "Miapaca-2 KRAS G12C + F156L", "test": "Stable KRAS mutant cell line viability assay (CellTiter-Glo)", "format": "cell-based", "conditions": "Miapaca-2 mutant cells, 3 d", "excerpt": "as §2"}, "[10]": {"test_system": "Miapaca-2 KRAS G12C + R68S", "test": "Stable KRAS mutant cell line viability assay (CellTiter-Glo)", "format": "cell-based", "conditions": "Miapaca-2 mutant cells, 3 d", "excerpt": "as §2"}, "[11]": {"test_system": "Miapaca-2 KRAS G12C + M72I", "test": "Stable KRAS mutant cell line viability assay (CellTiter-Glo)", "format": "cell-based", "conditions": "Homo sapiens, MIA PaCa-2, 72 h; Miapaca-2 mutant cells, 3 d", "excerpt": "as §2"}, "[12]": {"test_system": "Miapaca-2 KRAS G12C + V9Y", "test": "Stable KRAS mutant cell line viability assay (CellTiter-Glo)", "format": "cell-based", "conditions": "Miapaca-2 mutant cells, 3 d", "excerpt": "as §2"}, "[13]": {"test_system": "Miapaca-2 KRAS G12C + Q99W", "test": "Stable KRAS mutant cell line viability assay (CellTiter-Glo)", "format": "cell-based", "conditions": "Miapaca-2 mutant cells, 3 d", "excerpt": "as §2"}, "[14]": {"test_system": "Miapaca-2 KRAS G12C + Y96D", "test": "Stable KRAS mutant cell line viability assay (CellTiter-Glo)", "format": "cell-based", "conditions": "Miapaca-2 mutant cells, 3 d", "excerpt": "as §2"}}, "data": [{"smiles": "CO[C@@H](C)c1ncc(N2CCN(C)CC2)cc1-c1c2c3cc(cc4c3n1CCC4)-c1csc(n1)C[C@H](NC(=O)[C@H]1[C@H](C)[C@@H]1C)C(=O)N1CCC[C@H](N1)C(=O)OCC(C)(C)C2", "note": "(atropisomer, axis not shown; (M)) [Example 24, (1r,2R,3S)-N-[(7S,13S)-(20M)-20-[2-[(1S)-1-methoxyethyl]-5-(4-methylpiperazin-1-yl)-3-pyridyl]-17,17-dimethyl-8,14-dioxo-15-oxa-4-thia-9,21,30,31-tetrazahexacyclo[23.3.1.1^2,5.1^9,13.0^19,27.0^21,26]hentriaconta-1 (28),2,5 (31), 19,25 (29),26-hexaen-7-yl]-2,3-dimethyl-cyclopropanecarboxamide]", "values": [{"measurement": "IC50", "setting": "[1]", "value": 1.3, "unit": "nM"}, {"measurement": "IC50", "setting": "SW620 cells (KRAS G12V)", "value": 0.3, "unit": "nM"}, {"measurement": "IC50", "setting": "AGS cells (KRAS G12D)", "value": 4.7, "unit": "nM"}, {"measurement": "Selectivity Index (IC50 ratio) WT KRAS/KRAS G12V", "setting": "WT KRAS-BRAF complex", "value": 4.6}, {"measurement": "IC50", "setting": "[2]", "value": 1, "unit": "nM"}, {"measurement": "IC50", "setting": "[3]", "value": 2, "unit": "nM"}, {"measurement": "IC50", "setting": "[4]", "value": 2, "unit": "nM"}, {"measurement": "IC50", "setting": "[5]", "value": 1, "unit": "nM"}, {"measurement": "IC50", "setting": "[6]", "value": 3, "unit": "nM"}, {"measurement": "IC50", "setting": "[7]", "value": 6, "unit": "nM"}, {"measurement": "IC50", "setting": "[8]", "value": 1, "unit": "nM"}, {"measurement": "IC50", "setting": "[9]", "value": 1, "unit": "nM"}, {"measurement": "IC50", "setting": "[10]", "value": 2, "unit": "nM"}, {"measurement": "IC50", "setting": "[11]", "value": 1, "unit": "nM"}, {"measurement": "IC50", "setting": "[12]", "value": 1, "unit": "nM"}, {"measurement": "IC50", "setting": "[13]", "value": 5, "unit": "nM"}, {"measurement": "IC50", "setting": "[14]", "value": 2, "unit": "nM"}]}]}
